Entries after “also recorded” stand apart in the source; their conditions may differ.

Experiment [1] has as its system SIVmac251. In words: Plasma viral load (real time RT-PCR of SIV RNA) in SIV-infected rhesus macaques. In kind it is in vivo, rhesus macaques (Macaca mulatta). The text has this:
Fifteen (15) colony bred rhesus macaques (Macaca mulatta) from the California Regional Primate Research Center, Davis, were used in this study. Animals were housed in accordance with The American Association for Accredition of Laboratory Animal Care guidelines. All animals were seronegative for simian retrovirus (SRV-1) and simian T cell leukemia virus type-1 (STLV-1). Rhesus macaques were intravenously (I.V.) infected with 100 animal infectious doses of uncloned pathogenic SIVmac251. This viral inoculum has been previously shown to cause persistent viremia and infection Of multiple tissues in vivo, leading to fatal AIDS-like disease (Mandell et al 1995). The animals were divided into the following groups • 1. Untreated Controls, necropsy at week 10 (n=3) • 2. Untreated Controls, necropsy at week 26 (n=3) • 3 PMPA treatment, necropsy at week 10 (n=3) • 4. PMPA+RDP58 treatment, necropsy at week 10 (n=3) • 5. PMPA treatment, necropsy at week 26 (n=3) • 6. […]
Primers and probes specific to the SIV RNA sequence were designed and used in the real time PCR reaction. […] The progress of the reaction is monitored through the fluorescence released by […] that is proportional to the product being formed. Thus the fluorescence intensity is directly related to the amount of input target RNA. The data was analyzed with Sequence Detector Software (SDS). […]

In experiment [2] the test system is T cells in gut associated lymphoid tissue (GALT) and blood. In words: Flow cytometry of T cells from jejunal biopsies (GALT) and peripheral blood of SIV-infected rhesus macaques. In kind it is in vivo, rhesus macaques (Macaca mulatta). The text has this:
Fifteen (15) colony bred rhesus macaques (Macaca mulatta) from the California Regional Primate Research Center, Davis, were used in this study. Animals were housed in accordance with The American Association for Accredition of Laboratory Animal Care guidelines. All animals were seronegative for simian retrovirus (SRV-1) and simian T cell leukemia virus type-1 (STLV-1). Rhesus macaques were intravenously (I.V.) infected with 100 animal infectious doses of uncloned pathogenic SIVmac251. This viral inoculum has been previously shown to cause persistent viremia and infection Of multiple tissues in vivo, leading to fatal AIDS-like disease (Mandell et al 1995). The animals were divided into the following groups • 1. Untreated Controls, necropsy at week 10 (n=3) • 2. Untreated Controls, necropsy at week 26 (n=3) • 3 PMPA treatment, necropsy at week 10 (n=3) • 4. PMPA+RDP58 treatment, necropsy at week 10 (n=3) • 5. PMPA treatment, necropsy at week 26 (n=3) • 6. PMPA+RDP58 treatment, necropsy at week 26 (n=3)
PMPA treatment was initiated at 6 weeks post-infection and was administered at 30 mg/kg, I.V. RDP58 was administered orally, dissolved in drinking water, at 2 mg/kg, 3×/week.
Jejunal biopsies and peripheral blood samples were obtained from all animals prior to infection and at 2 weeks, 6 weeks, 10 weeks, 16 weeks and 26 weeks post-infection and at necropsy. Jejunal biopsies was obtained using a pediatric gastroscope.
Jejunal pinch biopsy samples were incubated RPMI 1640 (Gibco) and collagenase (Sigma) at 37° C. and rapidly shaken for 45 minutes then subjected to Percoll (Sigma) density gradient centrifugation to enrich for T cells and eliminate tissue debris. Cells were then washed with PBS (Gibco) and allowed to equilibrate over night at 37° C. and 5% CO2 in complete RPMI 1640 (containing 10% fetal calf sera, penicillin and streptomyicin). Cells were stained for three-color flow cytometric analysis with CD3FITC, CD4PE, CD8PE, CD45RA (BD Pharmingen), CD8TC, CD69TC, CD28TC, CD25PE (Caltag). All cells were fixed in 1% paraformaldehyde in PBS and read on a Bectin Dickenson FacScan within 3 hours of staining. Flow data was analyzed using Bectin Dickenson CellQuest softwear.
(In general: A flow cytometer gives signals particle by particle.)

As to “Arg-nL-nL-nL-Arg-nL-nL-nL-Gly-Tyr [RDP58]”, the “effect of RDP58 on suppression of viral loads by antiretroviral therapy” value in experiment [1] (RDP58 2 mg/kg orally 3x/week, alone or added to PMPA, 2 mg/kg) was “no adverse effect; also recorded: did not interfere with or change the effect of antiretroviral therapy”. The “stabilizing CD4+ T-cell population in GALT” value in experiment [2] (GALT) is reported as “beneficial effects”.
With `C[C@H](Cn1cnc2c(N)ncnc21)OCP(=O)(O)O` [PMPA, 9-R-(2-phosphonomethoxypropyl)adenine], the “plasma viral load (viral RNA copies/ml plasma)” value in experiment [1] (therapy started at week 6 post infection, PMPA 30 mg/kg I.V.) was “gradual decrease in viral load”. Also, the “CD3 gated CD4+ T cells after SIV-induced depletion” value in experiment [2] (GALT and blood, treatment from week 6) is listed as “reversal”. Moreover, the “% CD3 gated CD8+ cells” value in experiment [2] (by week 10) is “gradual decrease”. The “CD4+CD8+ double positive T cell counts in GALT” value in experiment [2] (week 12, GALT) is on record as “modest changes”.

The values are drawn from patent US7094413B2, “Combined therapy for treatment of HIV infection” (priority 2002, dated 2006).
